Reference: US6824786B2, “Compositions comprising phenyl-glycine derivatives” (priority 2001, dated 2004)

What was measured:
Type in all cases: in vivo, human
[1] = system: severe dry skin condition of X-linked ichthyosis; assay: Topical treatment of X-linked ichthyosis skin under Hays Occlusive Chamber
chronic plaque psoriasis = assay: Topical treatment of chronic plaque psoriasis
Text: A subject, having chronic plaque psoriasis for 55 year duration resistant to all forms of topical therapy, topically applied N-acetyl-4-hydroxyphenyl-glycinamide 10% cream twice daily to a thick plaque of psoriasis on the right elbow. […] The clinical evaluation was judged to be a 75% improvement after five days of topical treatment. […] Clinical evaluation rated the improvement to be about 90%. Three patients having chronic plaque psoriasis resistant to most forms of topical therapy topically applied N-acetyl-4-acetoxyphenyl-glycinamide 5% cream (Example 24) twice daily to thick plaques of psoriasis. […] The clinical evaluation was judged to be an 80% improvement after one week of topical treatment. […] Clinical evaluation rated the improvement on three patients to be from 95 to 100%.

forearm skin = assay: Forearm skin thickness by micrometer calipers (skin changes associated with aging); details: 10% cream twice daily to right forearm for four weeks; subject
Description: In one of the studies related to skin changes associated with aging, skin thickness was measured by micrometer calipers as follows: The skin was grasped with a 2×6 cm metal hinge; the internal faces of which were coated with emery cloth to prevent slippage, and manually squeezed to threshold subject discomfort. Combined thickness of two whole-skin layers including thickness of the two hinge leaves was measured with micrometer calipers. Thickness of the two hinge leaves was subtracted to determine the actual thickness of two whole-skin layers. Triplicate measurements on treated sites were conducted and an average number was used for calculation of the skin thickness. A subject, applied topically twice daily N-acetyl-4-hydroxyphenyl-glycinamide 5% cream to their left forearm for eight weeks. […] While there was no change in skin thickness of their right forearm, their left forearm had increased 49% in skin thickness as measured by the micrometer calipers (Example 1). […] While there was no change in skin thickness of their right forearm, their left forearm had increased 24% in skin thickness as measured by the micrometer calipers (Example 1). […] While there was no change in skin thickness of their left forearm, their right forearm had increased 25% in skin thickness as measured by the micrometer calipers (Example 1).

[2] = 5% cream twice daily, after one week, three patients

Compound	conclusion: topical treatment of severe dry skin and symptomatic relief of congenital ichthyosis ([1]; 10% cream)	clinical appearance of treated site after stopping treatment ([1]; 10% cream one week under chamber, then another week without any further treatment)	clinical appearance of treated site ([1]; 10% cream, 1 cm^2 involved skin of back under Hays Occlusive Chamber, after one week, subject)	erythema and thickness of the plaques (chronic plaque psoriasis; 5% cream (Example 24) twice daily, after one week, three patients)	clinical evaluation, improvement (chronic plaque psoriasis; [2])	psoriatic scales (chronic plaque psoriasis; [2])	clinical appearance of treated area (chronic plaque psoriasis; 5% cream twice daily, after two weeks, three patients)	conclusion: topical treatment of psoriasis (chronic plaque psoriasis; cream twice daily)	appearance of treated forearm (forearm skin)	increase in skin thickness (forearm skin)
COC(=O)CNc1ccc(O)cc1 [4-hydroxyphenyl-glycine methyl ester]	therapeutically effective	remained normal in clinical appearance	free of all evidence of ichthyosis	–	–	–	–	–	–	–
CC(=O)NC(=O)CNc1ccc(OC(C)=O)cc1 [N-acetyl-4-acetoxyphenyl-glycinamide]	–	–	–	diminished substantially	80%	no evidence of any psoriatic scales	clinically normal	therapeutically effective	more firm, smooth, plump and minimally wrinkled when lifted	25%
